Data from patent US12708607B2, “Thromboxane receptor antagonist formulations” (ATXA THERAPEUTICS LIMITED, priority 2020, dated 2026).
Read-outs that look alike come from different tables or passages of the source.

What was measured:
[1] = NTP42 levels in NHP plasma after repeat oral dosing; assay type: in vivo, cynomolgus monkey; details: for Cmax at 14 days: cynomolgus monkey, plasma, oral, 14 days repeat dosing of NTP42:KVA4 at 200 mg/kg/day
[2] = system: TP (thromboxane A2 receptor); experiment: whole blood platelet aggregation ex vivo after oral dosing, U46619-induced; assay type: in vivo, cynomolgus monkey; details: 100 mg/kg BID oral, Day 14; 1 μM U46619
Experimental: (§1) Whole blood platelet aggregation assays were performed ex vivo in blood samples taken from the NHPs (n=3) administered 100 mg/kg NTP42:KVA4, BID (200 mg/kg/day) for 14 days. In this type of platelet aggregation assay, a reduction in platelet numbers is indicative of platelet aggregation. Blood was collected prior to (pre-dose), and at 45 min- and 24 h-following the first daily dose, and platelet numbers determined in blood samples at baseline (untreated), and in blood samples incubated with drug vehicle, the thromboxane mimetic, U46619 or, as control, other platelet agonists (e.g., ADP, collagen, thrombin, ristocetin, epinephrine). Baseline platelet counts ranged from 120-190×10^3 platelets/μl.
(§2) Whole blood platelet aggregation assays were performed ex vivo in blood samples taken from the NHPs (n=3) administered 100 mg/kg NTP42:KVA4, BID (200 mg/kg/day) for 14 days. Blood was collected prior to (pre-dose), and at 45 min- and 24 h-following the first daily dose, and platelet numbers determined in blood samples at baseline (untreated), and in blood samples incubated with drug vehicle, the thromboxane mimetic, U46619 or, as control, 50 μM ADP. In this assay, a reduction in platelet numbers is indicative of platelet aggregation.

[3] = system: Su/Hx-induced PAH; details: Mulvaney et al. 2020; cited from earlier work
[4] = system: platelet aggregation induced by other platelet agonists; experiment: whole blood platelet aggregation ex vivo after oral dosing, other platelet agonists (e.g. 50 μM ADP); assay type: in vivo, cynomolgus monkey; details: 100 mg/kg BID oral, Day 14
Experimental: as §1, §2

[5] = system: MCT-induced PAH; details: Mulvaney et al. 2020; cited from earlier work

NTP42 levels in NHP plasma 24 h post-dosing ([1]; 24 h post-dosing, 200 mg/kg/day for 14 days): still detectable
Cmax at 14 days ([1]; read-out: Cmax of NTP42 in NHP plasma): 13200 ng/mL
Cmax at 14 days ([1]; read-out: Cmax of NTP42 in NHP plasma, molar equivalent): 25 µM
NTP42 in NHP plasma prior to the first daily dose ([1]; pre-dose, Day 14): present
Compound: CC(C)(C)NC(=O)NS(=O)(=O)c1cc(C#N)ccc1Oc1cccc(-c2ccc(OC(F)F)cc2)c1 [NTP42]
TXA2 (U46619)-induced / TP-mediated platelet aggregation ex vivo [2]: selectively inhibited
efficacy of non-formulated drug in Su/Hx-induced model of PAH [3]: has shown efficacy
aggregation induced by other platelet agonists [4]: did not affect
efficacy of non-formulated drug in MCT-induced model of PAH [5]: has shown efficacy
